Results: patent US10829501B2 (BRISTOL-MYERS SQUIBB COMPANY, priority 2016, dated 2020)
Where a name gives a salt, the structure may show the parent alone.

What follows are molecules tested against ROCK2 (Homo sapiens, UniProt O75116) (assay: ROCK2 kinase inhibition assay (LABCHIP 3000 Reader, FITC peptide substrate);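 further: rho kinase reaction read by separating phosphorylated from unphosphorylated peptide on chip, with inhibition of kinase activity computed per concentration across a dose-response series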).
Chain of ROCK2 (O75116 whole entry, species assumed): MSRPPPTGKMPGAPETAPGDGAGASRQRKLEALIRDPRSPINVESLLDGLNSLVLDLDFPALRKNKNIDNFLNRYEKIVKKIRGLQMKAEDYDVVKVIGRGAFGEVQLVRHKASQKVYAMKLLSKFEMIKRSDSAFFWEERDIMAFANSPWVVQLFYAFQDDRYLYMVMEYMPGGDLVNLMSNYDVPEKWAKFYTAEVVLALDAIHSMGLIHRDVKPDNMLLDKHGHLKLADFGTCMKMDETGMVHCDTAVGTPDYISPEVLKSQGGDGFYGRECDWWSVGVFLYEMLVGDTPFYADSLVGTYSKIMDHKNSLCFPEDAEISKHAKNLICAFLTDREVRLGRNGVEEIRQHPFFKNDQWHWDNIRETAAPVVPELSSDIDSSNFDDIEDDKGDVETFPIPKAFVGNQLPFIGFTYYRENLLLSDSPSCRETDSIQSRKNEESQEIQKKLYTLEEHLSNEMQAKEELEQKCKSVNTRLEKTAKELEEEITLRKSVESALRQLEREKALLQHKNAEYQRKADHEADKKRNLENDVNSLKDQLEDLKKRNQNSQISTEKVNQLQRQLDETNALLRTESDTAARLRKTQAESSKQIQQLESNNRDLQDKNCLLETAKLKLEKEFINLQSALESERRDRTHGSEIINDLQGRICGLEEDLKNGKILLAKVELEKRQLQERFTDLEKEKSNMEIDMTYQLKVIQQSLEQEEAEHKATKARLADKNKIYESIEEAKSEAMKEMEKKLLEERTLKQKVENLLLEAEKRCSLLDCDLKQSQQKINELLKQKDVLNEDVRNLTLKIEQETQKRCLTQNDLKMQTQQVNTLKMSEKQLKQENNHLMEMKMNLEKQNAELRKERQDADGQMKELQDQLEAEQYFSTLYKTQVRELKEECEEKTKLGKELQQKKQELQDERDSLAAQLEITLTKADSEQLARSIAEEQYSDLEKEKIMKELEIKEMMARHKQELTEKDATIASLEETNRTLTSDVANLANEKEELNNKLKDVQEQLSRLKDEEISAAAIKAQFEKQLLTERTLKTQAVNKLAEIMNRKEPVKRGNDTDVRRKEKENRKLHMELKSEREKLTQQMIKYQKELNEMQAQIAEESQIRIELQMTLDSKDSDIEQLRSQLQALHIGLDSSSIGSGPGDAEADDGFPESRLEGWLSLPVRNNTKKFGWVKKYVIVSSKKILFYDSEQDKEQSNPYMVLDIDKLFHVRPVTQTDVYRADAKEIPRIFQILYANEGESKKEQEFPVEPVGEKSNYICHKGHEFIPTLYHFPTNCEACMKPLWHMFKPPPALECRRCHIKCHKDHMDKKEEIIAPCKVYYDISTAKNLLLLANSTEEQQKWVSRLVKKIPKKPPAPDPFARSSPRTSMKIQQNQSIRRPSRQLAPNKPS

Compound	IC50 [nM]
N#Cc1cccc(C(=O)N[C@H]2CC3(C2)C[C@H](Oc2ncccc2C(N)=O)C3)c1 (stereo partly drawn) [Example 158, 2-(((aR)-6-(3-cyanobenzamido)spiro[3.3]heptan-2-yl)oxy) nicotinamide]	50 to 250
NC(=O)c1cccnc1O[C@H]1CC2(C[C@H](NC(=O)c3cc4ccccc4cn3)C2)C1 (stereo partly drawn) [Example 159, N-((aR)-6-((3-carbamoylpyridin-2-yl)oxy)spiro[3.3]heptan-2-yl)isoquinoline-3-carboxamide]	50 to 250
N#Cc1cccc(-c2ccc(C(=O)N[C@H]3CC4(C3)C[C@H](Oc3ncccc3C(N)=O)C4)cc2)c1 (stereo partly drawn) [Example 160, 2-(((aR)-6-(3′-cyano-[1,1′-biphenyl]-4-ylcarboxamido)spiro[3.3]heptan-2-yl)oxy) nicotinamide]	50 to 250
N#Cc1ccc(-c2ccc(C(=O)N[C@H]3CC4(C3)C[C@H](Oc3ncccc3C(N)=O)C4)cn2)cc1 (stereo partly drawn) [Example 161, N-((aR)-6-((3-carbamoylpyridin-2-yl)oxy)spiro[3.3]heptan-2-yl)-6-(4-cyanophenyl) nicotinamide]	5 to 50
NC(=O)c1cccnc1O[C@H]1CC2(C[C@H](NC(=O)c3ccc(-c4cccc(F)c4)cc3)C2)C1 (stereo partly drawn) [Example 162, 2-(((aR)-6-(3′-fluoro-[1,1′-biphenyl]-4-ylcarboxamido)spiro[3.3]heptan-2-yl)oxy)nicotinamide]	5 to 50
CC1(C)Cc2cccc(C(=O)N[C@H]3CC4(C3)C[C@H](Oc3ncccc3C(N)=O)C4)c2O1 (stereo partly drawn) [Example 163, 2-(((aR)-6-(2,2-dimethyl-2,3-dihydrobenzofuran-7-carboxamido)spiro[3.3]heptan-2-yl)oxy) nicotinamide]	250 to 2500
Cc1nc(-c2ccccc2)oc1C(=O)N[C@H]1CC2(C1)C[C@H](Oc1ncccc1C(N)=O)C2 (stereo partly drawn) [Example 164, N-((aR)-6-((3-carbamoylpyridin-2-yl)oxy)spiro[3.3]heptan-2-yl)-4-methyl-2-phenyloxazole-5-carboxamide]	250 to 2500
NC(=O)c1cccnc1O[C@H]1CC2(C[C@H](NC(=O)c3ncoc3-c3ccccc3)C2)C1 (stereo partly drawn) [Example 165, N-((aR)-6-((3-carbamoylpyridin-2-yl)oxy)spiro[3.3]heptan-2-yl)-5-phenyloxazole-4-carboxamide]	50 to 250
CC(C)(O)COc1ccn2c(C(=O)NC3CC4(C3)CC(Oc3ncccc3C(N)=O)C4)cnc2c1 (stereo not shown) [Example 166, N-((αR)-6-((3-carbamoylpyridin-2-yl)oxy)spiro[3.3]heptan-2-yl)-7-(2-hydroxy-2-methylpropoxy) imidazo[1,2-a]pyridine-3-carboxamide]	5 to 50
COc1ccc(C(N)=O)c(O[C@H]2CC3(C[C@H](NC(=O)c4cnn5c(C6CC6)c(OCC(C)(C)O)ccc45)C3)C2)n1 (stereo partly drawn) [Example 167, N-((aR)-6-((3-carbamoyl-6-methoxypyridin-2-yl)oxy)spiro[3.3]heptan-2-yl)-7-cyclopropyl-6-(2-hydroxy-2-methylpropoxy)pyrazolo [1,5-a]pyridine-3-carboxamide]	< 5
COc1ccc(C(N)=O)c(O[C@H]2CC3(C[C@H](NC(=O)c4cnn5c(CCC(F)(F)F)c(OCC(C)(C)O)ccc45)C3)C2)n1 (stereo partly drawn) [Example 168, N-((aR)-6-((3-carbamoyl-6-methoxypyridin-2-yl)oxy)spiro[3.3]heptan-2-yl)-6-(2-hydroxy-2-methylpropoxy)-7-(3,3,3-trifluoropropyl)pyrazolo [1,5-a]pyridine-3-carboxamide]	< 5
COc1ccc(C(N)=O)c(O[C@H]2CC3(C[C@H](NC(=O)c4nn(CC(C)(C)O)c5ccc(F)cc45)C3)C2)n1 (stereo partly drawn) [Example 169, N-((aR)-6-((3-carbamoyl-6-methoxypyridin-2-yl)oxy)spiro[3.3]heptan-2-yl)-5-fluoro-1-(2-hydroxy-2-methylpropyl)-1H-indazole-3-carboxamide]	5 to 50
NC(=O)c1cccnc1O[C@H]1CC2(C[C@H](NC(=O)c3cnc4c(C5CC5)cccn34)C2)C1 (stereo partly drawn) [Example 170, N-((aR)-6-((3-carbamoylpyridin-2-yl)oxy)spiro[3.3]heptan-2-yl)-8-cyclopropylimidazo[1,2-a]pyridine-3-carboxamide, Trifluoroacetate]	50 to 250

Next, values leading:

IC50 [nM]	Compound
5 to 50	NC(=O)c1cccnc1O[C@H]1CC2(C[C@H](NC(=O)c3nn(C(F)F)c4cc(OCc5ccccc5)ccc34)C2)C1 (stereo partly drawn) [Example 171, 6-(benzyloxy)-N-((aR)-6-((3-carbamoylpyridin-2-yl)oxy)spiro[3.3]heptan-2-yl)-1-(difluoromethyl)-1H-indazole-3-carboxamide, trifluoroacetate]
5 to 50	NC(=O)c1cccnc1O[C@H]1CC2(C[C@H](NC(=O)c3nn(C(F)F)c4cc(Br)ccc34)C2)C1 (stereo partly drawn) [Example 172, 6-bromo-N-((aR)-6-((3-carbamoylpyridin-2-yl)oxy)spiro[3.3]heptan-2-yl)-1-(difluoromethyl)-1H-indazole-3-carboxamide, trifluoroacetate]
5 to 50	Cn1nc(C(=O)N[C@H]2CC3(C2)C[C@H](Oc2ncccc2C(N)=O)C3)c2ccc(F)cc21 (stereo partly drawn) [Example 173, N-((aR)-6-((3-carbamoylpyridin-2-yl)oxy)spiro[3.3]heptan-2-yl)-6-fluoro-1-methyl-1H-indazole-3-carboxamide, trifluoroacetate]
5 to 50	[2H]C([2H])([2H])n1nc(C(=O)N[C@H]2CC3(C2)C[C@H](Oc2ncccc2C(N)=O)C3)c2ccc(F)cc21 (stereo partly drawn) [Example 174, 6-fluoro-1-(^2H3)methyl-N-[(aR)-6-[(3-carbamoylpyridin-2-yl)oxy]spiro[3.3]heptan-2-yl]-1H-indazole-3-carboxamide, trifluoroacetate]
< 5	NC(=O)c1cccnc1O[C@H]1CC2(C[C@H](NC(=O)c3nn(CC(F)F)c4cc(F)ccc34)C2)C1 (stereo partly drawn) [Example 175, N-((aR)-6-((3-carbamoylpyridin-2-yl)oxy)spiro[3.3]heptan-2-yl)-1-(2,2-difluoroethyl)-6-fluoro-1H-indazole-3-carboxamide, trifluoroacetate]
250 to 2500	[2H]C([2H])([2H])n1nc2cc(F)ccc2c1C(=O)N[C@H]1CC2(C1)C[C@H](Oc1ncccc1C(N)=O)C2 (stereo partly drawn) [Example 176, 6-fluoro-2-(^2H3)methyl-N-[(aR)-6-[(3-carbamoylpyridin-2-yl)oxy]spiro[3.3]heptan-2-yl]-2H-indazole-3-carboxamide, trifluoroacetate]
5 to 50	COc1cccc(-c2ccc3c(C(=O)N[C@H]4CC5(C4)C[C@H](Oc4ncccc4C(N)=O)C5)nn(C(F)F)c3c2)c1 (stereo partly drawn) [Example 177, N-((aR)-6-((3-carbamoylpyridin-2-yl)oxy)spiro[3.3]heptan-2-yl)-1-(difluoromethyl)-6-(3-methoxyphenyl)-1H-indazole-3-carboxamide, trifluoroacetate]
5 to 50	NC(=O)c1cccnc1OC1CC2(CC(NC(=O)c3nnc4cc(N5CCOCC5)ccn34)C2)C1 [Example 179, N-((aR)-6-((3-carbamoylpyridin-2-yl)oxy)spiro[3.3]heptan-2-yl)-7-morpholino-[1,2,4] triazolo[4,3-a]pyridine-3-carboxamide]
< 5	[H][C@]1(Oc2ncccc2C(N)=O)C[C@@]2(C[C@H](NC(=O)c3cc(C#N)cc(-c4cnc(C)s4)c3)C2)C1 (stereo partly drawn) [Example 180, 2-(((aR)-6-(3-cyano-5-(2-methylthiazol-5-yl)benzamido)spiro[3.3]heptan-2-yl)oxy)nicotinamide, TFA]
